Measurements taken from EP0051773A1, “Penicillins, their salts, process for their preparation and pharmaceutical compositions containing them” (Dr. Karl Thomae GmbH, priority 1980, dated 1982).
≈ marks a conversion by molar mass, not a printed value.

Assays:
E.coli ATCC 11 775 = test: experimental intraperitoneal infection in mice, ED50 (survival); format: in vivo, Mäuse; settings: Escherichia coli, ATCC 11 / ATCC 1175, sc, 168 h; female NMRI mice, i.p. infection, s.c. application, treated once, 7 days observation
Method: (§1) Eine Reihe der erfindungsgemäßen Verbindungen wurde in vivo bei experimentellen Infektionen an Mäusen untersucht. Man verwendete als pathogene Bakterien E.coli ATCC 11 775 und Pseudomonas aeruginosa Walter. Es wurde eine intraperitoneale Infektion mit 0,2 ml einer 5%igen Mucinsuspension der Bakterien gesetzt. Dies entspricht etwa 2x10^6 Keime E.coli bzw. 8x10^5 Keime Pseudomonas/Maus. Weibliche Mäuse vom Stamm NMRI wurden in Gruppen von jeweils 10 Tieren aufgeteilt, zwei Gruppen blieben unbehandelt, die restlichen Gruppen wurden mit verschiedenen Dosen der jeweiligen erfindungsgemäßen Penicilline zur Bestimmung der ED50 (Dosis, bei der 50 % der Tiere überleben) behandelt. Bei der E.coli-Infektion wurde einmal therapiert. Bei der Pseudomonas-Infektion wurde dreimal behandelt.
(§2) Der Beobachtungszeitraum betrug in beiden Fällen 7 Tage. Die Ergebnisse dieser Teste mit repräsentativen Vertretern der erfindungsgemäßen Penicilline sind in der Tabelle 3 dargestellt.

Proteus rettgeri BC 7 = test: serial dilution test in microtiter system (bacteriostasis, MIC); format: cell-based; settings: Providencia rettgeri, BC7; liquid medium, 18 to 20 h at 37°C; read-out: MHK-Werte Prot. rettg. BC 7
Method: (§3) Für die Untersuchungen wurde die Methode des Reihenverdünnungstestes im Mikrotitersystem angewandt. Die Prüfung der Substanzen auf Bakteriostase erfolgte in flüssigem Medium. Es wurde die Bakteriostasewirkung bei folgenden Konzentrationen untersucht.
(§4) Es wurde ein Nährboden folgender Zusammensetzung benutzt: 10 g Pepton, 8 g Fleischextrakt-Oxoid, 3 g Natriumschlorid, 2 g sek. Natriumphosphat werden mit dest. Wasser auf 1000 ml aufgefüllt (pH 7,2-7,4). Lediglich bei der Testung gegen Streptokokken wurde 1% Glucose hinzugefügt. Das Alter der Primärkulturen betrug etwa 20 Stunden. Die Einstellung der Keimsuspension erfolgte am Photometer (nach "Eppendorf") (Reagenzglas-Durchmesser 14 mm, Filter 546 nm) anhand der Trübung einer Bariumsulfat-Vergleichssuspension, die durch eine Bariumsulfat-Aufschwemmung erzeugt wurde, welche durch die Zugabe von 3,0 ml 1%ige Bariumchloridlösung in 97 ml 1%ige Schwefelsäure entstand. Nach der Einstellung wurden Streptococcus Aronson im Verhältnis 1:15 und die übrigen Testkeime im Verhältnis 1:1500 mit einer Kochsalzlösung weiter verdünnt.
(§5) 16 mg der jeweiligen Substanz wurden in 10 ml-Meßkolben eingewogen und mit dem Lösungsmittel bis zur Marke aufgefüllt. Die weitere Verdünnungsreihe wurde mit destilliertem Wasser oder dem jeweiligen Lösungsmittel hergestellt.
(§6) Die Vertiefungen der Mikrotiterplatten wurden mit 0,2 ml Nährmedium, 0,01 ml der entsprechenden Substanzverdünnung und mit einem Tropfen Keimsuspension (0,01 ml) beschickt und 18 bis 20 Stunden bei 37°C bebrütet. Eine Lösungsmittelkontrolle wurde stets mitgeführt.
(§7) Die Ablesung wurde makroskopisch vorgenommen, wobei die jeweilige Grenkonzentration (= niedrigste noch bakteriostatisch wirksame Konzentration) ermittelt wurde.
(§8) Als Testorganismen wurden benützt: - Staphylococcus aureus SG 511, Escherichia coli ATCC 11 775, Pseudomonas aeruginosa Hamburgensis und Walter, Serratia marcescens ATCC 13 880, Klebsiella pneumoniae ATCC 10 031 und BC 6, Proteus mirabilis Hamburgensis, Proteus rettgeri BC 7 und Enterobacter cloacae ATCC 13 047.
(§9) In der folgenden Tabelle 2 sind die ermittelten minimalen Hemmkonzentrationen (MIC) für typische Vertreter der erfindungsgemäßen Verbindungen aufgeführt, wobei sich die Ziffern auf die Penicilline der Tabelle 1 Seite 18 beziehen.

[1] = system: Pseudomonas aeruginosa Hamburgensis; test: as above; format: cell-based; settings: liquid medium, 18 to 20 h at 37°C, read-out: MHK-Werte Pseud. aerug. Hbg.
Method: as §3, §4, §5, §6, §7, §8, §9

[2] = system: Enterobacter cloacae ATCC 13 047; test: as above; format: cell-based; settings: ATCC13, liquid medium, 18 to 20 h at 37°C, read-out: MHK-Werte Eb. cloacae 13 047
Method: as §3, §4, §5, §6, §7, §8, §9

[3] = system: Escherichia coli ATCC 11 775; test: as above; format: cell-based; settings: ATCC11, liquid medium, 18 to 20 h at 37°C, read-out: MHK-Werte E.coli ATCC 11 755
Method: as §3, §4, §5, §6, §7, §8, §9

[4] = system: Klebsiella pneumoniae ATCC 10 031; test: as above; format: cell-based; settings: ATCC10, liquid medium, 18 to 20 h at 37°C, read-out: MHK-Werte Kl. pneum. ATCC 10 031
Method: as §3, §4, §5, §6, §7, §8, §9

[5] = system: Serratia marcescens ATCC 13 880; test: as above; format: cell-based; settings: ATCC13, liquid medium, 18 to 20 h at 37°C, read-out: MHK-Werte Serr. marcesc. ATCC 13 880
Method: as §3, §4, §5, §6, §7, §8, §9

[6] = system: Klebsiella pneumoniae BC 6; test: as above; format: cell-based; settings: BC6, liquid medium, 18 to 20 h at 37°C, read-out: MHK-Werte Kl. pneum. BC 6
Method: as §3, §4, §5, §6, §7, §8, §9

[7] = system: Proteus mirabilis Hamburgensis; test: as above; format: cell-based; settings: liquid medium, 18 to 20 h at 37°C, read-out: MHK-Werte Prot. mir. Hbg.
Method: as §3, §4, §5, §6, §7, §8, §9

[8] = system: Staphylococcus aureus SG 511; test: as above; format: cell-based; settings: SG511, liquid medium, 18 to 20 h at 37°C, read-out: MHK-Werte Staph. aureus SG 511
Method: as §3, §4, §5, §6, §7, §8, §9

[9] = system: Pseudomonas aeruginosa Walter; test: as above; format: cell-based; settings: liquid medium, 18 to 20 h at 37°C, read-out: MHK-Werte Pseud. aerug. Walter
Method: as §3, §4, §5, §6, §7, §8, §9

[10] = system: Pseudomonas aeruginosa Walter; test: experimental intraperitoneal infection in mice, ED50 (survival); format: in vivo, Mäuse; settings: sc, 168 h, female NMRI mice, i.p. infection, s.c. application, treated three times, 7 days observation, read-out: ED50 Pseud. aerug. Walter
Method: as §1, §2

Row | Compound | MIC (Proteus rettgeri BC 7) [µg/mL] | MIC [1] [µg/mL] | MIC [2] [µg/mL] | MIC [3] [µg/mL] | MIC [4] [µg/mL] | MIC [5] [µg/mL] | MIC [6] [µg/mL] | MIC [7] [µg/mL] | MIC [8] [µg/mL] | MIC [9] [µg/mL] | ED50 (E.coli ATCC 11 775) [mg/kg] | ED50 [10] [mg/kg]
1 | C[S+]([O-])c1ccc(CNc2ncc(NC(=O)NC(C(=O)N[C@@H]3C(=O)N4[C@@H]3SC(C)(C)[C@@H]4C(=O)O)c3ccc(O)cc3)c(O)n2)cc1 (stereo partly drawn) [Verbindung 62] | 1 (≈ 1.49 µM) | 2 (≈ 2.99 µM) | 4 (≈ 5.97 µM) | 0.5 (≈ 0.747 µM) | 4 (≈ 5.97 µM) | 1 (≈ 1.49 µM) | 8 (≈ 11.9 µM) | 0.12 (≈ 0.179 µM) | 0.5 (≈ 0.747 µM) | 2 (≈ 2.99 µM) | 5.9 | 18.3
2 | CC1(C)S[C@@H]2[C@H](NC(=O)[C@H](NC(=O)Nc3cnc(Nc4ccc(S(N)(=O)=O)cc4)nc3O)c3ccc(O)c(Cl)c3)C(=O)N2[C@H]1C(=O)O [Verbindung 4] | 0.5 (≈ 0.707 µM) | 2 (≈ 2.83 µM) | 1 (≈ 1.41 µM) | 0.25 (≈ 0.354 µM) | 2 (≈ 2.83 µM) | 0.25 (≈ 0.354 µM) | 2 (≈ 2.83 µM) | 0.25 (≈ 0.354 µM) | 0.25 (≈ 0.354 µM) | 1 (≈ 1.41 µM) | 6.1 | 
3 | CNS(=O)(=O)c1ccc(Nc2ncc(NC(=O)N[C@@H](C(=O)N[C@@H]3C(=O)N4[C@@H]3SC(C)(C)[C@@H]4C(=O)O)c3ccc(O)cc3)c(O)n2)cc1 [Verbindung 7, D-α-[3-(4-Hydroxy-2-p-methylaminosulfonylanilino-5-pyrimidinyl)-ureido]-p-hydroxy-benzylpenicillin-Natrium] | 0.5 (≈ 0.728 µM) | 1 (≈ 1.46 µM) | 0.5 (≈ 0.728 µM) | 0.12 (≈ 0.175 µM) | 1 (≈ 1.46 µM) | 0.12 (≈ 0.175 µM) | 1 (≈ 1.46 µM) | 0.06 (≈ 0.0874 µM) | 0.25 (≈ 0.364 µM) | 1 (≈ 1.46 µM) | 3.4 | 6.6

The next lines start with results.

Row | MIC (Proteus rettgeri BC 7) [µg/mL] | MIC [1] [µg/mL] | MIC [2] [µg/mL] | MIC [3] [µg/mL] | MIC [4] [µg/mL] | MIC [5] [µg/mL] | MIC [6] [µg/mL] | MIC [7] [µg/mL] | MIC [8] [µg/mL] | MIC [9] [µg/mL] | Compound | ED50 (E.coli ATCC 11 775) [mg/kg] | ED50 [10] [mg/kg]
4 | 0.5 (≈ 0.766 µM) | 1 (≈ 1.53 µM) | 2 (≈ 3.06 µM) | 0.25 (≈ 0.383 µM) | 2 (≈ 3.06 µM) | 0.25 (≈ 0.383 µM) | 2 (≈ 3.06 µM) | 0.06 (≈ 0.0919 µM) | 0.5 (≈ 0.766 µM) | 1 (≈ 1.53 µM) | CC1(C)S[C@@H]2[C@H](NC(=O)C(NC(=O)Nc3cnc(Nc4ccc(C(N)=O)c(O)c4)nc3O)c3ccc(O)cc3)C(=O)N2[C@H]1C(=O)O (stereo partly drawn) [Verbindung 50] | 4 | 
5 | 0.25 (≈ 0.403 µM) | 1 (≈ 1.61 µM) | 2 (≈ 3.22 µM) | 0.25 (≈ 0.403 µM) | 4 (≈ 6.44 µM) | 0.25 (≈ 0.403 µM) | 2 (≈ 3.22 µM) | 0.06 (≈ 0.0967 µM) | 0.25 (≈ 0.403 µM) | 2 (≈ 3.22 µM) | CC1(C)SC2C(NC(=O)C(NC(=O)Nc3cnc(Nc4ccc(C(N)=O)cc4)nc3O)c3ccccc3)C(=O)N2C1C(=O)O (stereo not drawn) [Verbindung 34] | 3.2 | 
6 | 2 (≈ 4.33 µM) | 8 (≈ 17.3 µM) | 32 (≈ 69.3 µM) | 16 (≈ 34.7 µM) | 32 (≈ 69.3 µM) | 2 (≈ 4.33 µM) | 32 (≈ 69.3 µM) | 0.5 (≈ 1.08 µM) | 0.5 (≈ 1.08 µM) | 8 (≈ 17.3 µM) | CC1(C)S[C@@H]2[C@H](NC(=O)[C@H](NC(=O)N3CCNC3=O)c3ccccc3)C(=O)N2[C@H]1C(=O)O [A, 6-{D-α'-[(2-Oxo-imidazolidin-1-yl)-carbonylamino]-4-phenylacetamido}-penicillansäure-Natriumsalz, reference compound] | > 100 | 225
7 | 0.25 (≈ 0.372 µM) | 1 (≈ 1.49 µM) | 1 (≈ 1.49 µM) | 0.12 (≈ 0.178 µM) | 0.5 (≈ 0.743 µM) | 0.12 (≈ 0.178 µM) | 1 (≈ 1.49 µM) | 0.06 (≈ 0.0892 µM) | 0.12 (≈ 0.178 µM) | 0.5 (≈ 0.743 µM) | CC1(C)SC2C(NC(=O)C(NC(=O)Nc3cnc(Nc4ccc(S(N)(=O)=O)c(O)c4)nc3O)c3ccccc3)C(=O)N2C1C(=O)O (stereo not drawn) [Verbindung 45] | 3.2 | 5.2
